Measurements reported in US20010003780A1, “Retinoid antagonists and uses thereof” (priority 1997, published 2001).

Tested on: trauma-induced caecal adhesion in rats
Experiment: trauma-induced caecal adhesion model in rats
Assay type: in vivo, rat
Procedure: Models of peritoneal adhesions induced by surgical trauma have been used to predict the clinical activity of a number of marketed anti-adhesion barrier devices. One such model is the trauma-induced caecal adhesion model in rats. A representative retinoid antagonist compound of the present invention, 4-{{(E)-(5,6-dihydro-5,5-dimethyl-8-phenyl)-2-naphthalenyl]vinyl]benzoic acid of the formula [drawing 49]
Adult female Wistar rats were used in our studies. The trauma induction was carried out using aseptic conditions in animals anesthetized with a mixture of Ketamine (100 mg/kg) and Rompun (10 mg/kg) given IP. A 2 cm midline abdominal incision was made and the caecum was exteriorized. Both sides of the caecum were abraded with a dry gauze until there was evidence of punctate bleeding. After replacing the organ in the abdominal cavity, the incision was closed. Trauma to the caecum produces fibrous scar tissue or adhesions to adjacent organs, peritoneal wall, or the omentum. Animals were treated with test compound orally or by intravenous injection or intra-abdominally by direct instillation into the peritoneal cavity. Oral treatments were administered once daily for up to 7 days. Intra-abdominal treatments were applied once post-trauma and just prior to wound closure.
On the seventh postoperative day, the animals were sacrificed and the peritoneal cavity was exposed and examined for adhesions. Three criteria that were used to evaluate the adhesions are: severity of the adhesions, extent or area of the ceacum involved with adhesions and the number of adhesions formed in each animal. Statistical analysis of the data was performed using students' T test. The following scoring system was used:
The test compound described above administered by the intra-abdominal route was compared to some other representative retinoid antagonists of the present invention. A single dose of compound in 3 ml volume was instilled over the traumatized caecum and abdominal cavity prior to closing the incision. Seven days later the animals were sacrificed and the abdominal cavity was examined for adhesions to the caecum.

[1] = administered orally for 7 days, 10 and 15 mg/kg, compared to the vehicle control (FIG. 1)

| Structure (SMILES) | number of adhesions per animal [1] | severity of adhesions per animal [1] | severity of caecal adhesions (single intra-abdominal application at 5 mg in 3 ml, examined seven days later (Table 2)) | number of adhesions formed (single intra-abdominal application at 5 mg in 3 ml, examined seven days later, compared to the vehicle control (Table 2)) | effect on trauma induced adhesions (number, severity and extent of caecal adhesions) (orally administered, at twice the dose of the test compound (Table 1)) |
| --- | --- | --- | --- | --- | --- |
| CC1(C)CC=C(c2ccccc2)c2cc(/C=C/c3ccc(C(=O)O)cc3)ccc21 [compound A, 4-{{(E)-(5,6-dihydro-5,5-dimethyl-8-phenyl)-2-naphthalenyl]vinyl]benzoic acid] | significantly reduced | significantly reduced | effectively reduced | significantly reduced |  |
| CC1=C(/C=C/C(C)=C/C=C/C(C)=C/C(=O)O)C(C)(C)CCC1 [All-trans retinoic acid, all-trans retinoic acid, reference compound] |  |  |  |  | no significant effect |
